Assay: pKa values in water of the activators
Assay type: physicochemical
Conditions: for pKa: read-out: pKa in H2O

Row | Compound | pKa | pKa in H2O
1 | Cn1nnnc1S [Activator 1-Me-MCT, 5-mercapto-1-methyltetrazole] | 3.86 | –
2 | Sc1nnnn1-c1ccccc1 [Activator 1-Ph-MCT, 5-mercapto-1-phenyltetrazole] | 3.65 | –
3 | c1ccc(CSc2nnn[nH]2)cc1 [BTT, 5-benzylthiotetrazole] | 4.1 | –
4 | CCSc1nnn[nH]1 [ETT, 5-ethylthio-1H-tetrazole] | 4.3 | –
5 | saccharin 1-methylimidazole [SMI] | – | 7

From patent US20240391945A1, “NUCLEIC ACID SYNTHESIS METHOD USING SEGMENT-TYPE AMIDITE” (NITTO DENKO CORPORATION, priority 2020, published 2024)
